Source: ChEMBL document CHEMBL1201862, “PubChem BioAssay data set” (2004)
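The compound was tested at five concentrations on cells cultured in 96-well plates, with a 48-hour exposure period. GI50 is the concentration that inhibits growth by half.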 The source made the active and inactive calls. Cut-off read from the data, not from the text of the source: active = GI50 up to about 1.1 µM and inactive = higher.

Legend:
Assay in all cases: NCI tumour cell line growth inhibition, 48 h
[1] = tested on: 786-0
[2] = tested on: CCRF-CEM
[3] = tested on: HCT-116
[4] = tested on: HT-29
[5] = tested on: K562
[6] = tested on: KM12
[7] = tested on: LOX IMVI
[8] = tested on: Malme-3M
[9] = tested on: NCI-H226
[10] = tested on: OVCAR-5
[11] = tested on: SF-268
[12] = tested on: SF-539
[13] = tested on: SK-MEL-5
[14] = tested on: SK-OV-3
[15] = tested on: U-251

Measured: GI50

COc1cc(O)c2c(c1O)C(=O)c1cc(C)ncc1C2=O
inactive: [1] 23 µM | [2] 19.2 µM | [3] 16.5 µM | [4] 15.3 µM | [5] 20 µM | [6] 17.9 µM | [7] 13.9 µM | [8] 9.71 µM | [9] 45 µM | [10] 44.9 µM | [11] 19.8 µM | [12] 17.4 µM | [13] 11.6 µM | [14] 9.89 µM | [15] 12.9 µM

O=c1cc(-c2ccccc2)[nH]c2cc(Cl)cc(Cl)c12
inactive: [1] 22 µM | [2] > 100 µM | [3] 31.6 µM | [4] > 100 µM | [5] 7.31 µM | [6] 5.04 µM | [7] 70 µM | [8] 20.6 µM | [9] 37.8 µM | [10] > 100 µM | [11] 28.4 µM | [12] 29.5 µM | [13] 37.8 µM | [14] 23.6 µM | [15] 31.1 µM

COC(=O)C1=CCON(c2ccccc2)C1c1ccccc1 (stereo not given)
inactive: [1] > 100 µM | [2] 47.4 µM | [4] 40.4 µM | [5] 40.4 µM | [6] 45 µM | [7] 47.1 µM | [8] 48.1 µM | [9] 93.8 µM | [10] 94.2 µM | [11] 75.3 µM | [12] > 100 µM | [14] 53 µM | [15] 40.3 µM

Clc1ccc2[nH]c(CCSCCc3nc4ccc(Cl)cc4[nH]3)nc2c1
inactive: [1] 13.5 µM | [2] 10.8 µM | [3] 6.21 µM | [4] 11.6 µM | [5] 16.8 µM | [6] 15.2 µM | [7] 12.8 µM | [9] 13.4 µM | [10] 12.4 µM | [12] 16.5 µM | [13] 5.87 µM | [14] 18.1 µM | [15] 13.4 µM

COC(=O)C1CC(C(=O)OC)c2nc3cc(C)c(C)cc3nc21 (stereo not given)
inactive: [1] > 100 µM | [2] > 100 µM | [4] > 100 µM | [5] > 100 µM | [6] > 100 µM | [7] > 100 µM | [8] > 100 µM | [9] > 100 µM | [10] > 100 µM | [11] > 100 µM | [12] > 100 µM | [13] > 100 µM | [14] > 100 µM | [15] > 100 µM
